SMILES strings stand for the structures. Where “and” joins values, the source holds several entries; their conditions need not be identical. Equal entries are not always repeated. Entries after “also recorded” stand apart in the source; their conditions may differ. Structures can show the parent of a compound that is named as a salt. Where two headings read alike, the source gives them in different places.

The source of these data is patent US12252457B2, “Compositions and methods for reducing tactile dysfunction, anxiety, and social impairment” (President and Fellows of Harvard College, priority 2018, dated 2025).

For test [1], the target named is T1, human GABA-A α1β3γ2 ion channels (Homo sapiens, UniProt P14867+P28472).
T1 construct: expressed in transfected cells
T1 sequence (P14867 28-456): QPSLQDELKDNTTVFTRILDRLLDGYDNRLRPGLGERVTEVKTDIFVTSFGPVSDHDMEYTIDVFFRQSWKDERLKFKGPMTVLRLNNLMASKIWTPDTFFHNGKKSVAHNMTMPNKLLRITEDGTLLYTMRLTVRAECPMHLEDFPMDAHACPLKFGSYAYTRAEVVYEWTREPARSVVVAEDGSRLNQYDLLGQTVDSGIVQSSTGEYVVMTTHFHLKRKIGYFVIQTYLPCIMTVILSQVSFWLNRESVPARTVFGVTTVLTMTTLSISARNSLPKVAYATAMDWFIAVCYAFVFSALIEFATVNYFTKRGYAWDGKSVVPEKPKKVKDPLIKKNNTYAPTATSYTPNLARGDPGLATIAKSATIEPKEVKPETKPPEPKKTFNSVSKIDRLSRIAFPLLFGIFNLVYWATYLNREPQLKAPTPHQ
T1 sequence (P28472 26-473): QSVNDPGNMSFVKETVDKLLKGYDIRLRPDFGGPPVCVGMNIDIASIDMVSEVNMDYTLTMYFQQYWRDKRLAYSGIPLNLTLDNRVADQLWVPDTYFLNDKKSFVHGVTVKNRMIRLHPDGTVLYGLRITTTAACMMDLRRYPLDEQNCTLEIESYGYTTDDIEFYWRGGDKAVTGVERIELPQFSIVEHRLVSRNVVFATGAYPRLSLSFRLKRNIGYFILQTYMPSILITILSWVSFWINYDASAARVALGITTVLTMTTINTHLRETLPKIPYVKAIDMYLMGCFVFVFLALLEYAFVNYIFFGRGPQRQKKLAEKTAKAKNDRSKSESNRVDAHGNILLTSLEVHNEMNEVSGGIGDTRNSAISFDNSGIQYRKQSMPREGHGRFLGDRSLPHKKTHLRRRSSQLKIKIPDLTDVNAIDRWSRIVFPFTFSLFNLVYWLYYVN
T1 sequence (P18507 40-467 partner limits assumed): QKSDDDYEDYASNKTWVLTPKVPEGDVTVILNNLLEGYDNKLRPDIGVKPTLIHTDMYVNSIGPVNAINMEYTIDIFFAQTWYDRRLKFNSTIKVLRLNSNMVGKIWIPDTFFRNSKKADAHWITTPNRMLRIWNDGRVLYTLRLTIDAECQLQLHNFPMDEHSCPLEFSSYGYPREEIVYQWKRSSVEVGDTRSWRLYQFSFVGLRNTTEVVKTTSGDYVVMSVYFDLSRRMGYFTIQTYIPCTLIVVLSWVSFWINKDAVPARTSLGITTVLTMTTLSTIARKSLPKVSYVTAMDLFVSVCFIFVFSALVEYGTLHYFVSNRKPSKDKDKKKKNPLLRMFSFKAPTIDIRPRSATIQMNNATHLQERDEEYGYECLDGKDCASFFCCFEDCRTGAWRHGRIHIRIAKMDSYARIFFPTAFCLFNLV
Nature of the test: Human GABA-A receptor IonFlux HT agonist assay (Cl-flux), α1β3γ2. The class given is cell-based. As to conditions: for Normalized Peak hGABAA α1β3γ2 Current (%) Agonist, Mean: normalized to EC100 GABA (30 μM). As for the experimental part: Six additions of 0.33% DMSO for 2 seconds were introduced to the cells to act as a time matched vehicle control for the agonist. Note: The test compound was applied over two ‘experimental patterns’ in increasing concentrations. […] Time-matched negative and reference compound data are included for comparison.
The supplied compounds were prepared in DMSO to concentrations that were 300× the final assay concentrations of 0.1, 0.3, 1, 3, 10, 30 and 100 μM. Aliquots were taken out and diluted 300× into external buffer to give the final assay concentration. All wells included a final DMSO concentration of 0.33% including all control wells.
(§1) All recordings were obtained from a holding potential of −60 mV. The compound addition sequence that was used for all additions was the same for all assays. […] Each test concentration of compound was applied for 2 seconds followed by 30 seconds wash. The process was repeated with the next ascending concentration of test compound up to a maximum of six concentrations per well (FIG. 14).
(§2) Peak inward currents in response to the additions of compound were measured. […] All data were first exported to an Excel compatible data file and then analyzed using Graph Pad Prism software.

For test [2], the target named is T2, human GABA-A α2β3γ2 ion channels (Homo sapiens, UniProt P28472+P47869).
T2 construct: expressed in transfected cells
T2 sequence (P47869 29-451): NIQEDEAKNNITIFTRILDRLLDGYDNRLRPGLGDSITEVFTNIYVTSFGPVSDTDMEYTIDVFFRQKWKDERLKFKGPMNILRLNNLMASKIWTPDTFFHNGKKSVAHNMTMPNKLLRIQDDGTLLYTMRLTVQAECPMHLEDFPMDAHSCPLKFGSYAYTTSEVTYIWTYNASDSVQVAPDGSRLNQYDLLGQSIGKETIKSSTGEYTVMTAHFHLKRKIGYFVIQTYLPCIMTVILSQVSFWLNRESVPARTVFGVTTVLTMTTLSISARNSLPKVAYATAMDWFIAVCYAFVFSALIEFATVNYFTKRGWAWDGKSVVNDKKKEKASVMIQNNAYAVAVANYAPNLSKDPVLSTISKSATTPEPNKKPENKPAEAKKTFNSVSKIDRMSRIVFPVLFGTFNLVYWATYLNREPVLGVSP
T2 sequence (P28472 26-473): T1 sequence (P28472 26-473)
T2 sequence (P18507 40-467 partner limits assumed): T1 sequence (P18507 40-467 partner limits assumed)
Nature of the test: Human GABA-A receptor IonFlux HT agonist assay (Cl-flux), α2β3γ2. As to conditions: for Normalized Percentage Activation, Mean: hGABAA α2β3γ2. The class given is cell-based.
Source text: (FIG. 12A) Six additions of 0.33% DMSO for 2 seconds were introduced to the cells to act as a time matched vehicle control for the agonist. (FIG. 12B) Note: The test compound was applied over two ‘experimental patterns’ in increasing concentrations. […] Time-matched negative and reference compound data are included for comparison.
[…] Aliquots were taken out and diluted 300× into external buffer to give the final assay concentration. All wells included a final DMSO concentration of 0.33% including all control wells.
as §1, §2

`NC1C=C(C(=O)O)CCC1` (centres unmarked) [Compound 5, 3-aminocyclohex-1-enecarboxylic acid hydrochloride]: the “agonism of α1β3γ2-containing GABAA receptor (in words)” value in test [1] is “not an agonist”. Further, the “Normalized Peak hGABAA α1β3γ2 Current (%) Agonist, Mean” value in test [1] (0.1 μM) is on record as 0.58%; in test [1] (0.3 μM) it was 0.56%; in test [1] (1 μM) it was 0.58%; in test [1] (3 μM) it was 0.62%; in test [1] (10 μM), 0.79%; in test [1] (30 μM) it was 0.57%. For the same molecule, the “Normalized Peak hGABAA α1β3γ2 Current (%) Agonist, Mean” value in test [1] (100 μM) is 0.49%. In addition, the 50% effective concentration (EC50) in test [2] was more than 1000 µM. Also, the “Normalized Percentage Activation, Mean” value in test [2] (0.3 μM) was 1.42%; in test [2] (1 μM), 1.28%; in test [2] (3 μM), 1.23%; in test [2] (10 μM), 1.56%; in test [2] (30 μM), 1.48%; in test [2] (100 μM), 1.96%. Further, the results for the “Normalized Percentage Activation, Mean” value in test [2] (300 μM) and in test [2] (1000 μM) were 1.77% and 1.64%, respectively. Also, the “agonism of α2β3γ2-containing GABAA receptor (in words)” value in test [2] (hydrochloride) is on record as “not an agonist; also recorded: no agonism”.

For `O=C(O)C1=CCNCC1` [Isoguvacine, isoguvacine], the “Normalized Peak hGABAA α1β3γ2 Current (%) Agonist, Mean” value was found to be 0.55% in test [1] (0.1 μM); 1.02% in test [1] (0.3 μM); 1.92% in test [1] (1 μM); 4.94% in test [1] (3 μM); 21.18% in test [1] (10 μM); 53.29% in test [1] (30 μM). In test [1] (100 μM), the “Normalized Peak hGABAA α1β3γ2 Current (%) Agonist, Mean” value was 79.91%. The EC50 was 23.3 µM and 19.7 µM in test [1] (GABAA receptor chloride flux assay, read-out: EC50, activation of α1β3γ2-containing GABAA receptors); 18.7 µM in test [2] (GABAA receptor chloride flux assay, read-out: Estimated EC50 (μM), activation of α2β3γ2-containing GABAA receptors). Also, the “Normalized Percentage Activation, Mean” value in test [2] (0.3 μM) came out at 2.09%; in test [2] (1 μM), 4.69%; in test [2] (3 μM), 10.43%; in test [2] (10 μM) it was 32.71%; in test [2] (30 μM), 63.48%; in test [2] (100 μM) it was 85.91%. For the same molecule, the “Normalized Percentage Activation, Mean” value is 99.01% in test [2] (300 μM) and 100.05% in test [2] (1000 μM).
